Counter-ions that a name gives are not always drawn. Like-named read-outs stand apart in the source and are kept apart here.
System: HBV rcDNA in HepDE19 cells
Experiment: HepDE19 assay with bDNA quantitation of HBV rcDNA
Type: cell-based, hepatitis B virus (HBV)
[1] = Hepatitis B virus, HepDE19, 168 h, read-out: DE-19 bDNA EC50 (μM), HepDE19 cells, inhibition of rcDNA formation, 7 day incubation, top concentration 25 μM
[2] = Hepatitis B virus, HepDE19, 168 h, HepDE19 cells, inhibition of rcDNA formation, 7 day incubation, top concentration 25 μM, read-out: DE-19 bDNA EC50

O=C(Nc1ccc(F)c(Cl)c1)c1ccc(F)c2c1CC[C@@H]2NS(=O)(=O)c1ccccc1 [Compound 183, (S)—N-(3-Chloro-4-fluorophenyl)-7-fluoro-1-(phenylsulfonamido)-2,3-dihydro-1H-indene-4-carboxamide]
EC50 [1]: 0.65 µM

O=C(Nc1ccc(F)c(Cl)c1)c1ccc(F)c2c1CCC2=O [Compound 251, N-(3-Chloro-4-fluorophenyl)-7-fluoro-1-oxo-2,3-dihydro-1H-indene-4-carboxamide]
EC50 [2]: 0.55 µM

CC(C)(C)OC(=O)N[C@H]1CCc2c(C(=O)Nc3ccc(F)c(Cl)c3)ccc(F)c21 [Compound 10, O-tert-Butyl, N—(S)-(4-((3-chloro-4-fluorophenyl)carbamoyl)-7-fluoro-2,3-dihydro-1H-inden-1-yl) carbamate]
EC50 [2]: 0.8 µM

O=C(Nc1ccc(F)c(Cl)c1)c1ccc(F)c2c1CC[C@@H]2NS(=O)(=O)Cc1ccccc1 [Compound 222, (S)—N-(3-Chloro-4-fluorophenyl)-7-fluoro-1-((phenylmethyl)sulfonamido)-2,3-dihydro-1H-indene-4-carboxamide]
EC50 [2]: 0.3 µM

O=C(N[C@H]1CCc2c(C(=O)Nc3ccc(F)c(Cl)c3)ccc(F)c21)c1nccs1 [Compound 127, (S)—N-(4-((3-Chloro-4-fluorophenyl)carbamoyl)-7-fluoro-2,3-dihydro-1H-inden-1-yl)thiazole-2-carboxamide]
EC50 [2]: 0.36 µM

COC(=O)NC1(C)CCc2c(C(=O)Nc3ccc(F)c(Cl)c3)ccc(F)c21 (stereo not shown) [Compound 218, O-Methyl, N-(4-((3-chloro-4-fluorophenyl)carbamoyl)-7-fluoro-1-methyl-2,3-dihydro-1H-inden-1-yl) carbamate]
EC50 (HepDE19 cells, inhibition of rcDNA formation, 7 day incubation, top concentration 25 μM, read-out: DE-19 bDNA EC50): 1.9 µM

O=C(Nc1ccc(F)c(Cl)c1)c1ccc(F)c2c1CCS2(=O)=O [Compound 272, N-(3-Chloro-4-fluorophenyl)-7-fluoro-2,3-dihydrobenzo[b]thiophene-4-carboxamide 1,1-dioxide]
EC50 [2]: 0.22 µM

CN1C(=O)CC[C@@H]1COC(=O)N[C@H]1CCc2c(C(=O)Nc3ccc(F)c(Cl)c3)ccc(F)c21 [Compound 43]
EC50 [1]: 0.54 µM

O=C(Nc1ccc(F)c(Cl)c1)c1ccc(F)c2c1CC[C@@H]2NS(=O)(=O)CCc1ccccn1 [Compound 167, (S)—N-(3-Chloro-4-fluorophenyl)-7-fluoro-1-((2-(pyridin-2-yl)ethyl)sulfonamido)-2,3-dihydro-1H-indene-4-carboxamide Hydrochloride]
EC50 [1]: 0.29 µM

O=C(N[C@H]1CCc2c(C(=O)Nc3ccc(F)c(Cl)c3)ccc(F)c21)OC1CCCC1 [Compound 131, O-Cyclopentyl, N—(S)-(4-((3-chloro-4-fluorophenyl)carbamoyl)-7-fluoro-2,3-dihydro-1H-inden-1-yl)carbamate]
EC50 [2]: 0.59 µM

O=C(N[C@H]1CCc2c(C(=O)Nc3ccc(F)c(Cl)c3)ccc(F)c21)OC[C@@H]1COCCN1 [Compound 180, O—((S)-Morpholin-3-yl)methyl, N—((S)-4-((3-chloro-4-fluorophenyl)carbamoyl)-7-fluoro-2,3-dihydro-1H-inden-1-yl) carbamate Hydrochloride]
EC50 [1]: 0.2 µM

O=C(NCc1ccccn1)O[C@H]1CCc2c(C(=O)Nc3ccc(F)c(Cl)c3)ccc(F)c21 [Compound 74, N—(S)-4-((3-Chloro-4-fluorophenyl)carbamoyl)-7-fluoro-2,3-dihydro-1H-inden-1-yl, O-(pyridin-2-ylmethyl) carbamate]
EC50 [2]: 1.6 µM

CC1(C)Cc2c(C(=O)Nc3ccc(F)c(Cl)c3)ccc(F)c2C1NC(=O)OCc1ccccn1 (stereo not shown) [Compound 136, O-Pyridin-2-ylmethyl, N-(4-((3-chloro-4-fluorophenyl)carbamoyl)-7-fluoro-2,2-dimethyl-2,3-dihydro-1H-inden-1-yl) carbamate]
EC50 (read-out: DE-19 bDNA EC50, HepDE19 cells, inhibition of rcDNA formation, 7 day incubation, top concentration 25 μM): 0.29 µM
